The METLIN SMRT retention time set (Domingo-Almenara et al. 2019)

Assay: gradient 5% acetonitrile 3 min, to 50% in 2 min, to 85% in 15 min, held 3 min, 100 µL/min
Details: column: Zorbax Extend-C18 2.1 x 50 mm; eluents: water / acetonitrile, 0.1% formic acid
How it was run: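 Each retention time is based on an adduct peak selected computationally and verified by manual inspection. Measurements used HPLC–quadrupole time-of-flight mass spectrometry in positive and negative ionization mode on mixtures of ~100 pure standards. Chromatography ran on a Zorbax Extend-C18 column (2.1 × 50 mm, 1.8 μm) at 100 μL/min with water and acetonitrile, each containing 0.1% formic acid, and dead and dwell volumes of 40 μL and 900 μL.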

| Structure (SMILES) | RP-LC retention time [s] |
| --- | --- |
| CCN1CCCn2nc(C3CCN(C(=O)c4cccc(C(F)(F)F)c4)CC3)cc2C1=O | 785 |
| CC(=O)N1c2ccc(S(=O)(=O)N3CCCC3)cc2CC1C(=O)NCCc1ccc(C)cc1 (stereo unspecified) | 797 |
| Cc1nnc(-c2ccc3ccn(CC(=O)Nc4ccc5c(c4)OCCO5)c3c2)o1 | 756 |
| COc1ccc(-c2nnc(-c3ccc(C)c(S(=O)(=O)N4CCOCC4)c3)o2)cc1OC | 844 |
| Cc1cc2c(c(=O)n(-c3ccc(F)cc3)c(=O)n2CC(=O)Nc2ccccc2F)n1C | 837 |
| O=c1ccc(-c2ccc(F)cc2)nn1Cc1nc(-c2ccc(F)cc2)no1 | 952 |
| COc1cccc(NC(=O)Cn2nc3n(c2=O)CCCC3)c1 | 634 |
| Cc1ccc(CN2N=C(C(=O)N3CCOCC3)S(=O)(=O)c3ccc(C)cc32)cc1 | 907 |
| C[C@H]1CN(C(=O)NCc2ccccc2)C[C@@H]1c1nc(-c2ccncc2)no1 | 715 |
| CCn1cc(-c2nc(CC(=O)NCc3ccc(C)o3)cs2)c2cccnc21 | 912 |
| Cc1noc(C)c1CC(=O)N1CCc2c(c(-c3nncn3C)nn2C)C1 | 591 |
| COc1ccc(Nc2c(-c3ccc(N(C)C)cc3)nc3ncccn23)cc1 | 684 |
| COc1ccc(C(=O)NCCC(O)C(C)(C)C)cc1 (stereo unspecified) | 688 |
| CCn1nnc2c(Nc3cccc(C(C)=O)c3)ncnc21 | 686 |
| CCOC(=O)c1c(C)[nH]c(CCC(=O)NCCN(C)C)c1C | 591 |
| CCN1CCN(C(=O)c2cn(-c3ccc(NC(=O)CC(C)C)cn3)cn2)CC1 | 589 |
| O=C(Nc1ccc2c(c1)CN(S(=O)(=O)Cc1ccccc1)CCO2)C1CC1 | 844 |
| CCN(CC)C(=O)c1ccc2c(c1)N(CC(=O)N1CCN(c3ccccn3)CC1)C(=O)CS2 | 598 |

| Structure (SMILES) | RP-LC retention time [s] |
| --- | --- |
| COc1ccc(NC(=O)c2csc3c2CCCC3)cc1 | 894 |
| O=C(CCc1nnn2c1CN(C(=O)c1ccoc1)CC2)N1CCOCC1 | 580 |
| Cc1ccc(-n2nc(N3CCCC(C(=O)NCc4ccc(N(C)C)cc4)C3)ccc2=O)cc1Cl (stereo unspecified) | 692 |
| Cc1ccc(CNS(=O)(=O)c2c(C)nc3sc(C)nn23)o1 | 710 |
| CCOC(=O)c1c(S(=O)(=O)N2CCC(C(=O)NCCc3ccccc3)CC2)c(C)n(C)c1C | 826 |
| Cc1nn(CCC(=O)Nc2ccc(F)cc2F)c(=O)c2nn(-c3ccccc3)c(C)c12 | 795 |
| O=c1n(Cc2cccc(C(F)(F)F)c2)nc2c(S(=O)(=O)N3CCCCCC3)cccn12 | 1020 |
| CC(NC(=O)C1CCN(c2cncnc2N2CCOCC2)CC1)c1ccccn1 (stereo unspecified) | 547 |
| O=C(CCn1nnc2cc(-c3noc(COc4ccccc4)n3)ccc21)N1CCCCCC1 | 1000 |
| COCCc1noc(-c2cnc3nc(C)ccc3c2Nc2ccc(Cl)cc2)n1 | 760 |
| O=C(CSc1ccc(N2CCCC(C(=O)NC3CC3)C2)nn1)NCc1ccc(F)cc1 (stereo unspecified) | 622 |
| Cc1ccc(-c2nc(Nc3cccc(C(F)(F)F)c3)sc2CC(=O)O)c(C)c1 | 1120 |
| Cc1nn(C)c(C)c1CNC(=O)CN1C(=O)C2CCCCN2c2ccc(C(=O)N3CCCC3)cc21 (stereo unspecified) | 654 |
| Cc1ccc2nc(C(=O)NCc3ccc(C)o3)cn2c1 | 660 |
| O=C(NCCC1=CCCCC1)c1ccc2ccnc(N3CCN(c4ccccc4)CC3)c2c1 | 958 |
| CN(C)c1nn(CC(=O)NCc2cccc(C(F)(F)F)c2)cc1-c1ccccc1 | 984 |
| O=C(CCCN1C(=O)C(c2ccccc2)Oc2cccnc21)NCCCN1CCCCC1 (stereo unspecified) | 573 |
| CN(C)S(=O)(=O)c1ccc(C(=O)N2CCC(Oc3nc4ccccc4s3)CC2)cc1 | 892 |
